Experimental data published in the kinase profiling compilation of Christmann-Franck et al. (2016).

How the values were obtained:
Assay in all cases: KINOMEscan competition binding
Details in all cases: compound 10.0 µM
STK36 (human) = STK36 (human) (UniProt Q9NRP7)
HCK (human) = HCK (human) (UniProt P08631)
MAP3K11 (human) = MAP3K11 (human) (UniProt Q16584)
EPHB3 (human) = EPHB3 (human) (UniProt P54753)
MAP3K2 (human) = MAP3K2 (human) (UniProt Q9Y2U5)
CDK11B (human) = CDK11B (human) (UniProt P21127)
Sequence of CDK11B (human) (P21127 whole entry, looked up): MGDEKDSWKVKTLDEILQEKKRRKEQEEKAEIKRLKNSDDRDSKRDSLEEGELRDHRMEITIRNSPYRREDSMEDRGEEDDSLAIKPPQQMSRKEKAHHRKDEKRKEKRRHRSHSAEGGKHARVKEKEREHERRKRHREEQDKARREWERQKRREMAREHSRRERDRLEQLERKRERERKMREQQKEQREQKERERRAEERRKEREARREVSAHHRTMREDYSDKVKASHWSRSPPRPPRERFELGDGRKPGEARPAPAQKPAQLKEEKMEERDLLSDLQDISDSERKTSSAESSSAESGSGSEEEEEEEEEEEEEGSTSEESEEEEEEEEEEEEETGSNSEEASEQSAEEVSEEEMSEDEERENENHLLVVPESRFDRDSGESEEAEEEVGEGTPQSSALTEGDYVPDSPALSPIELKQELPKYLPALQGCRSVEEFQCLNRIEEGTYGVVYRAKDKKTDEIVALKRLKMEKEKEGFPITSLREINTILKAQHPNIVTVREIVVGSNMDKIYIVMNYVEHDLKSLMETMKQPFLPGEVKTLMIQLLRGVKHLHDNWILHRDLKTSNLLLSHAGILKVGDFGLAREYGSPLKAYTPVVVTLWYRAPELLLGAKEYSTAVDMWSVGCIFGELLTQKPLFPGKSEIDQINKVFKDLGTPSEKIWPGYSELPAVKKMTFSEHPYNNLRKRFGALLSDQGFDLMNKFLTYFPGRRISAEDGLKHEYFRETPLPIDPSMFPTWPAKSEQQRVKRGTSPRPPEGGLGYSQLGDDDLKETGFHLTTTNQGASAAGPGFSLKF

ERBB2 (human) = ERBB2 (human) (UniProt P04626)
MAST1 (human) = MAST1 (human) (UniProt Q9Y2H9)
AKT1 (human) = AKT1 (human) (UniProt P31749)
CAMK4 (human) = CAMK4 (human) (UniProt Q16566)
Sequence of CAMK4 (human) (Q16566 whole entry, looked up): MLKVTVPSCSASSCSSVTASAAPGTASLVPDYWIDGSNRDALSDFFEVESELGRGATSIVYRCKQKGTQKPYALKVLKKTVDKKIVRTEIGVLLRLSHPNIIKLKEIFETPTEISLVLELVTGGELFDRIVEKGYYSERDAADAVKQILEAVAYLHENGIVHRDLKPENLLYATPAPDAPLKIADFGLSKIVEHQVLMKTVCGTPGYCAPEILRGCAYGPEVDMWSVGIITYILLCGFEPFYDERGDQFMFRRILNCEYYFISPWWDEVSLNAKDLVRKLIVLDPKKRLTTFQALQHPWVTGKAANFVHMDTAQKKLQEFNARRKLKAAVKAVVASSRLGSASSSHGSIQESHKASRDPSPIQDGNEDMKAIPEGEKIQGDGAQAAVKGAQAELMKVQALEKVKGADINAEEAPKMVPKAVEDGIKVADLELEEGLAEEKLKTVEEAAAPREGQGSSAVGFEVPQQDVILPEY

CSNK1E (human) = CSNK1E (human) (UniProt P49674)
MARK1 (human) = MARK1 (human) (UniProt Q9P0L2)
MATK (human) = MATK (human) (UniProt P42679)
CLK3 (human) = CLK3 (human) (UniProt P49761)
CAMKK2 (human) = CAMKK2 (human) (UniProt Q96RR4)
CLK2 (human) = CLK2 (human) (UniProt P49760)
HIPK2 (human) = HIPK2 (human) (UniProt Q9H2X6)
ITK (human) = ITK (human) (UniProt Q08881)
PIM1 (human) = PIM1 (human) (UniProt P11309)
MAP3K3 (human) = MAP3K3 (human) (UniProt Q99759)
DYRK1A (human) = DYRK1A (human) (UniProt Q13627)
CDK14 (human) = CDK14 (human) (UniProt O94921)
PIK3CB (human) = PIK3CB (human) (UniProt P42338)
LTK (human) = LTK (human) (UniProt P29376)
STK32C (human) = STK32C (human) (UniProt Q86UX6)
PRKCD (human) = PRKCD (human) (UniProt Q05655)
GRK1 (human) = GRK1 (human) (UniProt Q15835)
NUAK2 (human) = NUAK2 (human) (UniProt Q9H093)
Sequence of NUAK2 (human) (Q9H093 whole entry, looked up): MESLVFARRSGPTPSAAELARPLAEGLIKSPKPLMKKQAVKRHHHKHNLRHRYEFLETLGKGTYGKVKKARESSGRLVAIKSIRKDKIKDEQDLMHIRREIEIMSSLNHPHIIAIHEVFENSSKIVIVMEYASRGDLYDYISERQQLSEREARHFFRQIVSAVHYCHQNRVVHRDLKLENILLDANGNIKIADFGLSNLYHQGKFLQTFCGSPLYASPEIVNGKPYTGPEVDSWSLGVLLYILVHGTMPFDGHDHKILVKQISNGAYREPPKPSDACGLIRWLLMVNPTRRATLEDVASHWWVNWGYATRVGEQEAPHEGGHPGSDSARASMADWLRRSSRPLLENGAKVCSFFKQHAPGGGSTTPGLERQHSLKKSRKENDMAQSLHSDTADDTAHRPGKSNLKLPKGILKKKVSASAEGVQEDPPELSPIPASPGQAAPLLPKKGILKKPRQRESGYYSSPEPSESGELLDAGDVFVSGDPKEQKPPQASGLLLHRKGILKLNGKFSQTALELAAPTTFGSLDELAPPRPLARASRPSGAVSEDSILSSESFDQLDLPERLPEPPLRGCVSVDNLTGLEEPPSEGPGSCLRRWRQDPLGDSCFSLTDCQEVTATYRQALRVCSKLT

EPHA2 (human) = EPHA2 (human) (UniProt P29317)
MARK4 (human) = MARK4 (human) (UniProt Q96L34)
ACVR1 (human) = ACVR1 (human) (UniProt Q04771)
PTK2 (human) = PTK2 (human) (UniProt Q05397)
CSNK1G2 (human) = CSNK1G2 (human) (UniProt P78368)
Sequence of CSNK1G2 (human) (P78368 whole entry, looked up): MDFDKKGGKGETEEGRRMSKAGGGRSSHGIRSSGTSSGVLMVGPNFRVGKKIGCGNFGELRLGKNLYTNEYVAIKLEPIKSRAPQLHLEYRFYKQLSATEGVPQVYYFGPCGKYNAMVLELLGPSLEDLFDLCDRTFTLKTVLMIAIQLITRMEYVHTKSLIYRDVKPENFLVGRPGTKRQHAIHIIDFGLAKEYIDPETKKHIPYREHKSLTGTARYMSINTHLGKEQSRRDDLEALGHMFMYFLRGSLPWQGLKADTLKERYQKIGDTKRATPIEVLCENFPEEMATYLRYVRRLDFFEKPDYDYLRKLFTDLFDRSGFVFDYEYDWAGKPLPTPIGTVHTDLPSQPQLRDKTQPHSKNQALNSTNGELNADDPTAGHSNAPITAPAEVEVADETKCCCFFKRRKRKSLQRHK

MYLK4 (human) = MYLK4 (human) (UniProt Q86YV6)
EPHA4 (human) = EPHA4 (human) (UniProt P54764)
AXL (human) = AXL (human) (UniProt P30530)
Sequence of AXL (human) (P30530 whole entry, looked up): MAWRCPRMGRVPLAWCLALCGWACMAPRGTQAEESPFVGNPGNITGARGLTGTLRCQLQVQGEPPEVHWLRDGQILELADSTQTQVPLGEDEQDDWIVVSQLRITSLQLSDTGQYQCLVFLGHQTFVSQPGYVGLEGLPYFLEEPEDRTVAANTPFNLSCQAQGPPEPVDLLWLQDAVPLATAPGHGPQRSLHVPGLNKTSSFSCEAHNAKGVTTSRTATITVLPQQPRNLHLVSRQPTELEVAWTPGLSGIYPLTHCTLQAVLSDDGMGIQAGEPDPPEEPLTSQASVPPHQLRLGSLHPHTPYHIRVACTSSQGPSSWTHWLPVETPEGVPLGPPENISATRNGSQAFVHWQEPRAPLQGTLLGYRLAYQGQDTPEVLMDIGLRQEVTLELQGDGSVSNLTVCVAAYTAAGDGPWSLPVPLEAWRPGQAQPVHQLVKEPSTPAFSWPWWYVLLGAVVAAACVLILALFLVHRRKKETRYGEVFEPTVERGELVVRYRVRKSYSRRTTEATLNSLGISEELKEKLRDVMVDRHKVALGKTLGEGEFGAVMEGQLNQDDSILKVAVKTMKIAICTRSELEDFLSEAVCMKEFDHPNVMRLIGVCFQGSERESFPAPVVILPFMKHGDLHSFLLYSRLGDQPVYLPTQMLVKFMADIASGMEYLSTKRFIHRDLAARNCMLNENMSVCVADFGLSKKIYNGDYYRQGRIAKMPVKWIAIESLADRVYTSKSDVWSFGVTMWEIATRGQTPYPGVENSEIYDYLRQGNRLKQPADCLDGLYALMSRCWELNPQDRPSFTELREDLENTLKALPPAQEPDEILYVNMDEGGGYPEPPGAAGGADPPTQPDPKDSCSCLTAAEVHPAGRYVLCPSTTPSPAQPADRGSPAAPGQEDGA

TRPM6 (human) = TRPM6 (human) (UniProt Q9BX84)
MAP4K5 (human) = MAP4K5 (human) (UniProt Q9Y4K4)
ACVRL1 (human) = ACVRL1 (human) (UniProt P37023)
MAPK11 (human) = MAPK11 (human) (UniProt Q15759)

Sequence of EPHB3 (human) (P54753 whole entry, looked up): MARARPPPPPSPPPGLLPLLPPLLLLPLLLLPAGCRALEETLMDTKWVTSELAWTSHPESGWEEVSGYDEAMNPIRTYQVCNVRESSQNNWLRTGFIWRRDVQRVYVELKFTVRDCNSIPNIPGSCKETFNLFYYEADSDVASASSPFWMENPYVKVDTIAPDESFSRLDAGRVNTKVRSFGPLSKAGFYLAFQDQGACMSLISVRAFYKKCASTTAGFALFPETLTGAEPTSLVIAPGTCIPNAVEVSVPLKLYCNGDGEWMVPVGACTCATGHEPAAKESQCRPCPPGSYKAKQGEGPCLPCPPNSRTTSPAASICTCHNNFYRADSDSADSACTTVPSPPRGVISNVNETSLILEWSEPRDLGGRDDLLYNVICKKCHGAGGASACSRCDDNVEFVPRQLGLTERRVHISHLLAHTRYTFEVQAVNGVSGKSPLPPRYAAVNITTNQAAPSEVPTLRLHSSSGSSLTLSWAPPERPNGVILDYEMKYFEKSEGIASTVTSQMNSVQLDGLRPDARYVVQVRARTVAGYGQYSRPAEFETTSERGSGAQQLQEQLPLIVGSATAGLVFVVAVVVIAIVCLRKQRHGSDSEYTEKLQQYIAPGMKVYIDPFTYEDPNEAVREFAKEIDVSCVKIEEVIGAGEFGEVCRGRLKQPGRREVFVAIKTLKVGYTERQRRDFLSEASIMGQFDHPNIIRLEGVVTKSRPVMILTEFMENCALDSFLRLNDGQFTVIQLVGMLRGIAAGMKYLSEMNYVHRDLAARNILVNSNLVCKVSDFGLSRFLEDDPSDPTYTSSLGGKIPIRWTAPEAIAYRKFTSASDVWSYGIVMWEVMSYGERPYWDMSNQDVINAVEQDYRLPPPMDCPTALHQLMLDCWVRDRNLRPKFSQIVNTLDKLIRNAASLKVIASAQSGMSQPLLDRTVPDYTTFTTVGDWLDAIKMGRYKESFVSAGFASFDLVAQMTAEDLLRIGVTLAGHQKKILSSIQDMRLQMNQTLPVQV
Sequence of MAP3K2 (human) (Q9Y2U5 whole entry, looked up): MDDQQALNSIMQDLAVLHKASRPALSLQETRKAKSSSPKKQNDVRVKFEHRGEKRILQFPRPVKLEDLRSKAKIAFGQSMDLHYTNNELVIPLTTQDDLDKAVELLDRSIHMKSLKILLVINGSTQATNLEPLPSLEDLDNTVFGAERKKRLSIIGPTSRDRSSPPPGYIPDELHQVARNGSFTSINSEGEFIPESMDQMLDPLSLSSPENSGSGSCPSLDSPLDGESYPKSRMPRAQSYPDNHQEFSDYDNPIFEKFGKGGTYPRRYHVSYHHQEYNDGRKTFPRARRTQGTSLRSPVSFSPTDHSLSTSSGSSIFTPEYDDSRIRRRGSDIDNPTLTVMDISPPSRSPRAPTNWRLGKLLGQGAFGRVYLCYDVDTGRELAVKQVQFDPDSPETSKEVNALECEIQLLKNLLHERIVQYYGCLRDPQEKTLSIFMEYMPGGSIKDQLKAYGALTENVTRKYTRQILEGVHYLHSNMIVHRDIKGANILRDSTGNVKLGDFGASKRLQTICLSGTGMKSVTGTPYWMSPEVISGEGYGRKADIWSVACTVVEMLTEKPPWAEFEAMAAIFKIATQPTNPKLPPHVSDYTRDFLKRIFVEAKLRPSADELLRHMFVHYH

Row | SMILES | kinase still bound, per cent of control (STK36 (human)) | kinase still bound, per cent of control (HCK (human)) | kinase still bound, per cent of control (MAP3K11 (human)) | kinase still bound, per cent of control (EPHB3 (human)) | kinase still bound, per cent of control (MAP3K2 (human)) | kinase still bound, per cent of control (CDK11B (human)) | kinase still bound, per cent of control (ERBB2 (human)) | kinase still bound, per cent of control (MAST1 (human)) | kinase still bound, per cent of control (AKT1 (human)) | kinase still bound, per cent of control (CAMK4 (human)) | kinase still bound, per cent of control (CSNK1E (human)) | kinase still bound, per cent of control (MARK1 (human)) | kinase still bound, per cent of control (MATK (human)) | kinase still bound, per cent of control (CLK3 (human)) | kinase still bound, per cent of control (CAMKK2 (human)) | kinase still bound, per cent of control (CLK2 (human)) | kinase still bound, per cent of control (HIPK2 (human)) | kinase still bound, per cent of control (ITK (human)) | kinase still bound, per cent of control (PIM1 (human)) | kinase still bound, per cent of control (MAP3K3 (human)) | further results
1 | COc1cc2ncnc(Nc3cccc(Cl)c3)c2cc1OC | 54% | 6.8% | 100% | 97% | 30% | 86% | 0.3% | 79% | 100% | 100% | 32% | 100% | 48% | 100% | 72% | 53% | 80% | 100% | 49% | 6.6% | kinase still bound, per cent of control (DYRK1A (human)): 40%; kinase still bound, per cent of control (CDK14 (human)): 88%; kinase still bound, per cent of control (PIK3CB (human)): 47%; kinase still bound, per cent of control (LTK (human)): 48%; kinase still bound, per cent of control (STK32C (human)): 100%; kinase still bound, per cent of control (PRKCD (human)): 97%; kinase still bound, per cent of control (GRK1 (human)): 100%; kinase still bound, per cent of control (NUAK2 (human)): 49%; kinase still bound, per cent of control (EPHA2 (human)): 62%; kinase still bound, per cent of control (MARK4 (human)): 100%; kinase still bound, per cent of control (ACVR1 (human)): 74%; kinase still bound, per cent of control (PTK2 (human)): 100%; kinase still bound, per cent of control (CSNK1G2 (human)): 83%; kinase still bound, per cent of control (MYLK4 (human)): 78%; kinase still bound, per cent of control (EPHA4 (human)): 72%; kinase still bound, per cent of control (AXL (human)): 19%; kinase still bound, per cent of control (TRPM6 (human)): 77%; kinase still bound, per cent of control (MAP4K5 (human)): 26%; kinase still bound, per cent of control (ACVRL1 (human)): 100%; kinase still bound, per cent of control (MAPK11 (human)): 57%
2 | COc1cc2c(Nc3ccc(NC(=O)c4ccccc4)cc3)ncnc2cc1OCCCN1CCOCC1 | 98% | 2% | 20% | 100% | 28% | 16% | 0% | 100% | 100% | 100% | 80% | 100% | 100% | 100% | 81% | 80% | 50% | 100% | 100% | 18% | kinase still bound, per cent of control (DYRK1A (human)): 58%; kinase still bound, per cent of control (CDK14 (human)): 100%; kinase still bound, per cent of control (PIK3CB (human)): 81%; kinase still bound, per cent of control (LTK (human)): 6.3%; kinase still bound, per cent of control (STK32C (human)): 100%; kinase still bound, per cent of control (PRKCD (human)): 100%; kinase still bound, per cent of control (GRK1 (human)): 100%; kinase still bound, per cent of control (NUAK2 (human)): 94%; kinase still bound, per cent of control (EPHA2 (human)): 84%; kinase still bound, per cent of control (MARK4 (human)): 100%; kinase still bound, per cent of control (ACVR1 (human)): 100%; kinase still bound, per cent of control (PTK2 (human)): 62%; kinase still bound, per cent of control (CSNK1G2 (human)): 100%; kinase still bound, per cent of control (MYLK4 (human)): 100%; kinase still bound, per cent of control (EPHA4 (human)): 98%; kinase still bound, per cent of control (AXL (human)): 1.8%; kinase still bound, per cent of control (TRPM6 (human)): 98%; kinase still bound, per cent of control (MAP4K5 (human)): 2.7%; kinase still bound, per cent of control (ACVRL1 (human)): 85%; kinase still bound, per cent of control (MAPK11 (human)): 84%
3 | N#Cc1cc(-c2ccnc(Nc3ccc(-n4cnc(-c5cccnc5)n4)cc3)n2)cc(N2CCOCC2)c1 | 15% | 100% | 46% | 88% | 31% | 32% | 100% | 100% | 100% | 100% | 95% | 84% | 62% | 59% | 52% | 15% | 6.2% | 100% | 78% | 30% | kinase still bound, per cent of control (DYRK1A (human)): 3.1%; kinase still bound, per cent of control (CDK14 (human)): 35%; kinase still bound, per cent of control (PIK3CB (human)): 100%; kinase still bound, per cent of control (LTK (human)): 77%; kinase still bound, per cent of control (STK32C (human)): 89%; kinase still bound, per cent of control (PRKCD (human)): 65%; kinase still bound, per cent of control (GRK1 (human)): 100%; kinase still bound, per cent of control (NUAK2 (human)): 57%; kinase still bound, per cent of control (EPHA2 (human)): 56%; kinase still bound, per cent of control (MARK4 (human)): 78%; kinase still bound, per cent of control (ACVR1 (human)): 23%; kinase still bound, per cent of control (PTK2 (human)): 77%; kinase still bound, per cent of control (CSNK1G2 (human)): 72%; kinase still bound, per cent of control (MYLK4 (human)): 26%; kinase still bound, per cent of control (EPHA4 (human)): 79%; kinase still bound, per cent of control (AXL (human)): 28%; kinase still bound, per cent of control (TRPM6 (human)): 100%; kinase still bound, per cent of control (MAP4K5 (human)): 27%; kinase still bound, per cent of control (ACVRL1 (human)): 100%; kinase still bound, per cent of control (MAPK11 (human)): 79%
